{
  "source": "paper PMC10154080",
  "about": "(Investigational new drugs, 2022)",
  "key": {"[1]": {"settings": "cited from earlier work"}, "AMPK": {"test_system": "AMPK", "settings": "greater potency than Compound C; cited from earlier work"}, "[2]": {"settings": "rat, microsomes"}, "[3]": {"test": "Intracerebral microdialysis and plasma PK after i.p. administration in rats", "type": "in vivo, male SD rats"}, "[4]": {"test": "In vitro metabolism in mouse liver microsomes", "settings": "mouse (C57BL/6) liver microsomes"}, "[5]": {"settings": "mouse, microsomes"}, "[6]": {"test": "In vitro metabolism in rat liver microsomes", "settings": "rat (IGS SD) liver microsomes"}, "[7]": {"test": "Systemic PK after oral administration in rats", "type": "in vivo", "settings": "plasma, oral 25 mg/kg, male SD rats"}, "[8]": {"settings": "microsomes"}, "[9]": {"settings": "read-out: cytotoxicity IC50; cited from earlier work"}, "[10]": {"test": "In vitro metabolism in human liver microsomes"}, "ULK1": {"test_system": "ULK1", "settings": "read-out: IC50 ULK1; kinase inhibition assays; cited from earlier work"}, "[11]": {"settings": "orthotopically implanted C6 glioma, rats; cited from earlier work"}, "[12]": {"settings": "cited from earlier work", "remark": "listed apart in the source"}, "[13]": {"settings": "brain ECF, i.p. 25 mg/kg, male SD rats"}, "[14]": {"settings": "i.p. 25 mg/kg, male SD rats, 25 mg/kg"}, "[15]": {"settings": "plasma unbound, i.p. 25 mg/kg, male SD rats"}, "[16]": {"settings": "plasma, i.p. 25 mg/kg, male SD rats"}, "[17]": {"settings": "plasma, i.p. 25 mg/kg, male SD rats, 25 mg/kg"}},
  "note": "Values joined by “and” are separate entries in the source; they are usually repeats but may differ in a detail not shown here. Equal values may be shown once. Read-outs that look alike come from different tables or passages of the source.",
  "data": [
    {"compound": "CNC(=O)c1ccccc1Oc1nc(Nc2cc(OC)c(OC)c(OC)c2)ncc1Br", "note": "[SBI-0206965]", "values": [
      {"measurement": "logP", "setting": "[1]", "value": 3.8},
      {"measurement": "AMPK inhibition potency relative to Compound C", "setting": "AMPK", "value": 40, "unit": "fold"},
      {"measurement": "CLint, app", "setting": "[2]", "value": 42, "unit": "µL/min/mg"},
      {"measurement": "AUC0-inf", "setting": "[3]; [13]", "value": "783.67 ± 494.92", "unit": "ng·h/mL"},
      {"measurement": "AUC0–5", "setting": "[3]; [13]", "value": "660.81 ± 464.32", "unit": "ng·h/mL"},
      {"measurement": "Tmax", "setting": "[3]; [13]", "value": "39 ± 12", "unit": "min"},
      {"measurement": "Cmax", "setting": "[3]; brain ECF, i.p. 25 mg/kg, male SD rats, 25 mg/kg", "value": "358 ng/mL and 360 ng/mL and 358.33 ± 205.39 ng/mL"},
      {"measurement": "AUC0–5 ratio (brain ECF/plasma unbound)", "setting": "[3]; [14]", "value": "[…]"},
      {"measurement": "Cmax ratio (brain ECF/plasma unbound)", "setting": "[3]; [14]", "value": "[…]"},
      {"measurement": "time to plasma and brain ECF peak levels", "setting": "[3]; plasma and brain ECF, summary in abstract", "value": "0.25 to 0.65", "unit": "h"},
      {"measurement": "Cmax", "setting": "[3]; plasma unbound (corrected for protein binding), i.p. 25 mg/kg, male SD rats", "value": "615.03 ± 173.65", "unit": "ng/mL"},
      {"measurement": "AUC0-inf", "setting": "[3]; [15]", "value": "798.89 ± 387.87", "unit": "ng·h/mL"},
      {"measurement": "AUC0–5", "setting": "[3]; [15]", "value": "736.63 ± 358.26", "unit": "ng·h/mL"},
      {"measurement": "AUC0-inf", "setting": "[3]; [16]", "value": "4549.50 ± 2208.84", "unit": "ng·h/mL"},
      {"measurement": "AUC0–5", "setting": "[3]; [16]", "value": "4194.92 ± 2040.20", "unit": "ng·h/mL"},
      {"measurement": "Tmax", "setting": "[3]; [16]", "value": 15, "unit": "min"},
      {"measurement": "Cmax", "setting": "[3]; [17]", "value": "3502 ng/mL and 3502.42 ± 988.90 ng/mL"},
      {"measurement": "T1/2", "setting": "[3]; [17]", "value": "63.6 ± 42", "unit": "min"},
      {"measurement": "time to peak plasma concentration", "setting": "[3]; plasma, i.p. 25 mg/kg, rats", "value": 15, "unit": "min"},
      {"measurement": "brain partitioning (ratio of Cmax and AUC in brain ECF to unbound plasma)", "setting": "[3]; rats, plasma corrected for protein binding", "value": "[…]"},
      {"measurement": "Cmax", "setting": "[3]; read-out: brain ECF Cmax, brain ECF, i.p. 25 mg/kg, rats", "value": 750, "unit": "nM"},
      {"measurement": "elimination half-life", "setting": "[3]; summary in abstract", "value": "60 to 120", "unit": "min"},
      {"measurement": "T1/2", "setting": "[4]", "value": 6.24, "unit": "min"},
      {"measurement": "CLint, app", "setting": "[5]", "value": 111.06, "unit": "µL/min/mg"},
      {"measurement": "T1/2", "setting": "[6]", "value": 16.5, "unit": "min"},
      {"measurement": "AUC0-inf", "setting": "[7]", "value": "703.74 ± 222.82", "unit": "ng·h/mL"},
      {"measurement": "AUC0–5", "setting": "[7]", "value": "666.71 ± 215.16", "unit": "ng·h/mL"},
      {"measurement": "Cmax", "setting": "[7]", "value": "539.06 ± 219.94", "unit": "ng/mL"},
      {"measurement": "Tmax", "setting": "[7]; non-compartmental analysis", "value": 15, "unit": "min"},
      {"measurement": "T1/2", "setting": "[7]; 25 mg/kg", "value": "[…]"},
      {"measurement": "CLint, app", "setting": "[8]; human", "value": 71.96, "unit": "µL/min/mg"},
      {"measurement": "CLint, scaled (estimated in-vitro hepatic intrinsic clearance)", "setting": "[8]", "value": 68, "unit": "mL/min/kg body weight"},
      {"measurement": "IC50", "setting": "[9]", "value": "5000 to 10000", "unit": "nM"},
      {"measurement": "T1/2", "setting": "[10]", "value": 9.63, "unit": "min"},
      {"measurement": "IC50", "setting": "ULK1", "value": "[…]"}
    ]},
    {"compound": "N#Cc1ccc(C(c2ccc(C#N)cc2)n2cncn2)cc1", "note": "[letrozole]", "values": [
      {"measurement": "tumoral uptake relative to normal brain", "setting": "[11]", "value": "two-fold higher"}
    ]},
    {"compound": "Cn1nnc2c(C(N)=O)ncn2c1=O", "note": "[temozolomide]", "values": [
      {"measurement": "elimination half-life", "setting": "[12]", "value": "approximately 2 h"}
    ]}
  ]
}
